Counter-ions that a name gives are not always drawn. Like-named read-outs stand apart in the source and are kept apart here.
Tests used:
[1] = target: T1, SARS-CoV-2 PLpro (nsp3 1564–1878) (Severe acute respiratory syndrome coronavirus 2, UniProt P0DTD1); assay: biochemical; design: FRET-quenched peptide (Pro3) cleavage by PLpro, 10 min pre-incubation, slope over 20 min, normalised to no-compound control; conditions: high concentration screen, read-out: % of control remaining
[2] = target: T1, SARS-CoV-2 PLpro (nsp3 1564–1878); assay: biochemical; design: FRET-quenched peptide (Pro3) cleavage by PLpro, 10 min pre-incubation, slope over 20 min, normalised to no-compound control; conditions: low concentration screen, read-out: % of control remaining

`[N-]=[N+]=N[C@@H]1[C@H](O)[C@@H](n2ccc(=O)[nH]c2=O)O[C@H]1CO` [3'-Azido-3'-deoxy-beta-L-uridine] was tested, and the remaining activity at 3.75 µM ([1]; Well no.=7758) was 102% and the remaining activity at 1.25 µM ([2]; Well no.=7758) was 97.9%.
In the case of `COC1=CC(=O)O[C@@H](/C=C/c2ccccc2)C1` (racemic), the remaining activity at 3.75 µM ([1]; Well no.=3371) is reported as 95.8% and the remaining activity at 1.25 µM ([2]; Well no.=3371) is reported as 92.9%.
`C[N+]1(C)CCO[C@@](O)(c2ccc(-c3ccc([C@@]4(O)C[N+](C)(C)CCO4)cc3)cc2)C1` [Hemicholinium-3] gave a remaining activity at 3.75 µM ([1]; Well no.=474) of 95.2% and a remaining activity at 1.25 µM ([2]; Well no.=474) of 97.1%.
`Cc1ccc(NS(=O)(=O)c2ccc3c(c2)C2C=CCC2C(c2ccc(C(=O)O)cc2)N3)cc1C` (centres unmarked) [MX69] showed a remaining activity at 3.75 µM ([1]; Well no.=6822) of 94.1%, a remaining activity at 3.75 µM ([1]; Well no.=7984) of 98.5% and a remaining activity at 1.25 µM ([2]; Well no.=6822) of 97.6%. For the same compound, the remaining activity at 1.25 µM ([2]; Well no.=7984) was 100%.
`CO[C@H]1[C@@H](OC)C[C@H](C)[C@@H](OC)C2=CC(=O)C=C(NC(=O)/C(C)=C/C=C\[C@H](OC)[C@@H](OC(N)=O)/C(C)=C/[C@@H]1C)C2=O` [Herbimycin A, Streptomyces sp.] gave a remaining activity at 3.75 µM ([1]; Well no.=2419) of 111% and a remaining activity at 1.25 µM ([2]; Well no.=2419) of 104%.
`CC[C@@]1([C@@H]2O[C@@H]([C@H]3O[C@@](O)(CO)[C@H](C)C[C@@H]3C)C[C@@H]2C)CC[C@H]([C@]2(C)CC[C@]3(C[C@H](O)[C@@H](C)[C@@H]([C@@H](C)[C@@H](OC)[C@H](C)C(=O)O)O3)O2)O1` [Monensin] showed a remaining activity at 3.75 µM ([1]; Well no.=3413) of 99.5% and a remaining activity at 1.25 µM ([2]; Well no.=3413) of 94.8%.
Compound `[N-]=[N+]=N[C@H]1[C@@H](O)[C@H](n2cc(F)c(N)nc2=O)O[C@@H]1CO` [3'-Azido-3'-deoxy-5-fluorocytidine] has a remaining activity at 3.75 µM ([1]; Well no.=7910) of 95% and a remaining activity at 1.25 µM ([2]; Well no.=7910) of 96.3%.
`CSc1ccc(C(=O)c2[nH]c(=O)[nH]c2C)cc1` [Enoximone] was tested, and the remaining activity at 3.75 µM ([1]; Well no.=406) was 102% and the remaining activity at 1.25 µM ([2]; Well no.=406) was 103%.
With `O=P(O)(O)C(O)(Cc1cccnc1)P(=O)(O)O` [Risedronic acid] the remaining activity at 3.75 µM ([1]; Well no.=1989) was 96.9% and the remaining activity at 1.25 µM ([2]; Well no.=1989) was 97.8%.
Work on `Cc1ncc(Cl)cc1NCc1ccc(C(=O)N[C@@H](CC2CCCC2)C(=O)NC2CC2)s1` [(S)-5-(((5-chloro-2-methylpyridin-3-yl)amino)methyl)-N-(3-cyclopentyl-1-(cyclopropylamino)-1-oxopropan-2-yl)thiophene-2-carboxamide] yielded a remaining activity at 3.75 µM ([1]; Well no.=5550) of 99.3% and a remaining activity at 1.25 µM ([2]; Well no.=5550) of 94.4%.
`CC(C)[C@@]1(NC(=O)[C@@H]2C[C@@H]3c4cccc5[nH]cc(c45)C[C@H]3N(C)C2)O[C@@]2(O)[C@@H]3CCCN3C(=O)[C@H](Cc3ccccc3)N2C1=O` [Dihydroergocristine methanesulfonate] was tested, and the remaining activity at 3.75 µM ([1]; Well no.=404) was 101% and the remaining activity at 1.25 µM ([2]; Well no.=404) was 102%.
`OC[C@H]1O[C@@H](n2cnc3c(NCc4ccco4)ncnc32)[C@H](O)[C@@H]1O` [Kinetin riboside] gave a remaining activity at 3.75 µM ([1]; Well no.=6632) of 96.7% and a remaining activity at 1.25 µM ([2]; Well no.=6632) of 91.8%.
`CCCOC(=O)c1cc(O)c(O)c(O)c1` [N-Propyl gallate] showed a remaining activity at 3.75 µM ([1]; Well no.=3987) of 102% and a remaining activity at 1.25 µM ([2]; Well no.=3987) of 104%.
`CN1[C@@H]2CC[C@H]1C[C@@H](OC(=O)[C@H](CO)c1ccccc1)C2` [L-Hyoscyamine] gave a remaining activity at 3.75 µM ([1]; Well no.=424) of 96.8%, a remaining activity at 3.75 µM ([1]; Well no.=6801) of 99.4% and a remaining activity at 1.25 µM ([2]; Well no.=424) of 99.2%. It also gave a remaining activity at 1.25 µM ([2]; Well no.=6801) of 103%.
In the case of `CSc1ccc(/C=C2/C(C)=C(CC(=O)O)c3cc(F)ccc32)cc1` [Sulindac sulfide], the remaining activity at 3.75 µM ([1]; Well no.=6089) is reported as 93.8% and the remaining activity at 1.25 µM ([2]; Well no.=6089) is reported as 96.2%.
Compound `CC(C)N(CCC(C(N)=O)(c1ccccc1)c1ccccn1)C(C)C` (centres unmarked) [Disopyramide] has a remaining activity at 3.75 µM ([1]; Well no.=390) of 101% and a remaining activity at 1.25 µM ([2]; Well no.=390) of 101%.
`CCc1cc2c(cc1N1CCC(N3CCOCC3)CC1)C(C)(C)c1[nH]c3cc(C#N)ccc3c1C2=O` [CH5424802] showed a remaining activity at 3.75 µM ([1]; Well no.=5077) of 104% and a remaining activity at 1.25 µM ([2]; Well no.=5077) of 104%.
With `Cc1nccn1CC1CCc2c(c3ccccc3n2C)C1=O` (centres unmarked) [Ondansetron] the remaining activity at 3.75 µM ([1]; Well no.=2104) was 102% and the remaining activity at 1.25 µM ([2]; Well no.=2104) was 102%.
Compound `CC(C)CN(C[C@@H](O)[C@H](Cc1ccccc1)NC(=O)O[C@H]1CO[C@H]2OCC[C@H]21)S(=O)(=O)c1ccc(N)cc1` [Darunavir (Ethanolate)] has a remaining activity at 3.75 µM ([1]; Well no.=8504) of 90.4% and a remaining activity at 1.25 µM ([2]; Well no.=8504) of 98.9%.
For `CC(C)C[C@H](NC(=O)[C@H](Cc1ccccc1)NC(=O)c1cnccn1)B(O)O` [Bortezomib], the remaining activity at 3.75 µM ([1]; Well no.=1768) was 101%, the remaining activity at 1.25 µM ([2]; Well no.=1768) was 99.9% and the remaining activity at 1.25 µM ([2]; Well no.=6302) was 98.1%.
In the case of `COc1ccc(/C=C/C(=O)Nc2ccccc2C(=O)O)cc1OC` [Tranilast (trans-)], the remaining activity at 3.75 µM ([1]; Well no.=7917) is reported as 92% and the remaining activity at 1.25 µM ([2]; Well no.=7917) is reported as 92.9%.
`COc1cc([C@@H]2c3cc4c(cc3[C@@H](O[C@@H]3O[C@@H]5CO[C@@H](C)O[C@H]5[C@H](O)[C@H]3O)[C@H]3COC(=O)[C@H]23)OCO4)cc(OC)c1O` [Etoposide] was tested, and the remaining activity at 3.75 µM ([1]; Well no.=454) was 97.1%, the remaining activity at 3.75 µM ([1]; Well no.=1670) was 99.3% and the remaining activity at 3.75 µM ([1]; Well no.=3279) was 102%. It also gave a remaining activity at 3.75 µM ([1]; Well no.=6154) of 103%, a remaining activity at 1.25 µM ([2]; Well no.=454) of 103% and a remaining activity at 1.25 µM ([2]; Well no.=1670) of 99.8%. For the same compound, the remaining activity at 1.25 µM ([2]; Well no.=6154) was 102%.
Compound `CN1Cc2c(ccc3c2OCO3)[C@@H]2[C@H]1c1cc3c(cc1C[C@@H]2O)OCO3` [(+)-Chelidonine] has a remaining activity at 3.75 µM ([1]; Well no.=3439) of 97.2% and a remaining activity at 1.25 µM ([2]; Well no.=3439) of 95.5%.
Work on `COc1cc2c(cc1OC)-c1c/c(=N\c3c(C)cc(C)cc3C)n(C)c(=O)n1CC2` [Trequinsin hydrochloride] yielded a remaining activity at 3.75 µM ([1]; Well no.=1379) of 97.1% and a remaining activity at 1.25 µM ([2]; Well no.=1379) of 98.6%.
`COc1ccc(-c2ccc3ncc4c(c3c2)n(-c2ccc(N3CCNCC3)c(C(F)(F)F)c2)c(=O)n4C)cn1` [NVP-BGT226] gave a remaining activity at 3.75 µM ([1]; Well no.=4701) of 97.1% and a remaining activity at 1.25 µM ([2]; Well no.=4701) of 99%.
Work on `C[C@H](Cc1cc2c(c(C(N)=O)c1)N(CCCO)CC2)NCCOc1ccccc1OCC(F)(F)F` [Silodosin] yielded a remaining activity at 3.75 µM ([1]; Well no.=6759) of 102% and a remaining activity at 1.25 µM ([2]; Well no.=6759) of 101%.
`C[C@H](NCc1ccc(OCc2cccc(F)c2)cc1)C(N)=O` [Safinamide mesylate salt] showed a remaining activity at 3.75 µM ([1]; Well no.=5442) of 94.5% and a remaining activity at 1.25 µM ([2]; Well no.=5442) of 89.5%.
`CCN(CC)CCCCN1c2ccccc2Oc2ccc(Cl)cc21` [10-[4'-(N,N-Diethylamino)butyl]-2-chlorophenoxazine hydrochloride] gave a remaining activity at 3.75 µM ([1]; Well no.=2574) of 101% and a remaining activity at 1.25 µM ([2]; Well no.=2574) of 97.3%.
With `CC(=O)NCCc1c(Cc2ccccc2)[nH]c2ccccc12` [Luzindole] the remaining activity at 3.75 µM ([1]; Well no.=5524) was 96.8% and the remaining activity at 1.25 µM ([2]; Well no.=5524) was 92.5%.
